Earlier results in publication PMC9207678 (Journal of Mass Spectrometry and Advances in the Clinical …, 2022).

Settings: ratio to insulin, ref [2], [3]

half-life in circulation relative to insulin: 6–10 times
Substance: C-peptide
